Assay results reported in patent publication US8337835B2, “Use of an endogenous ligand for peroxisome proliferator activated receptor alpha to treat liver disorders” (priority 2009, dated 2012).

Biological target: T1, PPARδ LBD (Homo sapiens, UniProt Q03181)
T1 construct: Identical experiments were performed using the PPARδ and PPARγ LBDs; 6xHis; made in house
T1 sequence (Q03181 211-439 limits assumed): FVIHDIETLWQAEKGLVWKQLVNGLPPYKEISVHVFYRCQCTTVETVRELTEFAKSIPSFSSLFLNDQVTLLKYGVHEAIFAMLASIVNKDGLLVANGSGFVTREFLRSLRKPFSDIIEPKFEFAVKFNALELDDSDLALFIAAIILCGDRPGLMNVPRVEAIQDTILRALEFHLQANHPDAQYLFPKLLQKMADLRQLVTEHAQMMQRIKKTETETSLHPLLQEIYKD
Assay: ALPHASCREEN binding assay, PPARδ ligand binding domain
Conditions: 5 μM; compared with PPARδ activator GW0742
Description: Binding of 16:0/18:1-GPC and known agonists to the ligand binding domain (LBD) of PPARα in the presence of various peptide motifs was determined by ALPHASCREEN™ assay (Proc Natl Acad Sci USA 105, pp. 5034-5039, 2008). Experiments used 100 nM receptor LBD, purified as 6× His tag fusion proteins (Mol Cell 17, pp. 491-502, 2005), and 20 nM of N-terminal biotinylated CBP1 peptide or other coactivator peptides in the presence of 5 μg/ml donor and acceptor beads in 50 mM MOPS (pH 7.4), 100 mM NaCl, and 0.1 mg/ml BSA for 90 min at 25° C. Signals were generated in the absence or the presence of ligand. Identical experiments were performed using the PPARδ and PPARγ LBDs.
Stealth™ siRNA oligonucleotides were used to inhibit the gene expression of mouse ChPT1 ([…]) (SEQ ID NO: 1) and CEPT1 ([…]) (SEQ ID NO: 2) were from Invitrogen (Carlsbad, Calif.). […] Expression of ACO and CPT-1 was also assessed 24 h after addition of 50 μM 16:0/18:1-GPC in a subset of Hepa 1-6 cells previously treated with CEPT1 siRNA. mRNA levels are normalized to control L32 ribosomal mRNA. […] FIGS. 6F-H show the binding of various peptide motifs to the purified PPARα (FIG. 6F), PPARδ (FIG. 6G), and PPARγ (FIG. 6H) LBD in the presence of 5 μM of the corresponding PPAR agonist or 16:0/18:1-GPC as measured by AlphaScreen assays. […]

`CCCCCCCC/C=C\CCCCCCCC(=O)O[C@H](COC(=O)CCCCCCCCCCCCCCC)COP(=O)([O-])OCC[N+](C)(C)C` [16:0/18:1-GPC, 1-palmitoyl-2-oleoyl-sn-glycerol-3-phosphocholine] was tested, and the “interaction with PPARδ” value was “insubstantial”.
